Measured values as given in patent US10668039B2, “Methods for treatment of adenoid cystic carcinoma” (THE CHILDREN'S MEDICAL CENTER CORPORATION, priority 2016, dated 2020).
Entries after “also recorded” stand apart in the source; their conditions may differ.

Key:
[1] = system: ACC patient derived xenografts; assay: ACC xenotransplantation trials, average across ACCx6, ACCx9 and ACCx11; format: in vivo, nude mice; design: concentration or dose not given beside the values; conditions: average of ACCx6, ACCx9, ACCx11
Protocol: (§1) Xenograft experiments: To generate ACC xenografts, 1×10^6 viable ACC cells were injected into the flank of female nude (Foxn1nu) mice for in vivo drug testing of ACCx6, ACCx9, and ACCx11 lines. Once tumors were visible, the mice were randomized to receive vehicle control or drug until reaching a […] tumor volume of 1,000 mm3. The mice in each group were treated with an oral flat dose five times weekly (po qdx5) for four cycles (two days off between cycles). The exact dosing was determined based on an initial MTD tolerability study and published literature reports. Five mice per group were treated for ACCx6 and ACCx9, and four mice per group were treated for ACCx11 (five mice in the control ACCx11 group), and the tumor volumes were quantified. Mice were treated with a flat dose of 0.2 mL orally of: 30 mg/mL isotretinoin; 40 mg/mL fenretinide; 4 mg/mL ATRA for ACCx6 and ACCx11 or 3 mg/mL ATRA for ACCx9. Mouse procedures used in this study were approved by the IACUC at South Texas Accelerated Research Therapeutics (San Antonio, Tex.).
(§2) Primagraft experiments: For in vivo drug testing, ACC tumor fragments from host animals were implanted subcutaneously into the flank of nude mice (CRL: ATH/NU). Once tumors reached 125-250 mm3, mice were randomized to receive vehicle or drug diluted in 10:90 DMSO:10% hydroxypropyl-beta-cyclodextrin orally until controls reached a tumor volume endpoint of 1-2 cm3 (4-9 mice per group: x5M1 and x6, 4 treated vs. 9 vehicle controls; x9, 4 treated vs. 5 vehicle controls; x11, 5 treated vs. 8 vehicle controls). Mice were treated with ATRA (ACC x6 and x11: 4 mg/mL, 0.2 mL flat dose; ACC×9: 3 mg/mL, 0.2 mL flat dose) or isotretinoin (30 mg/mL, 0.2 mL flat dose). Tumor growth was monitored and mice weighed twice weekly and studies ended when final group reached tumor volume endpoint. No statistical methods were employed to determine the sample size, and no blinding of investigators was performed. After long-term tumor growth inhibition studies were completed, the ATRA treated mice stopped receiving treatment and were maintained longer as indicated to monitor tumor maintenance after treatment cessation. For long-term tumor growth inhibition studies, ACC x6, x9, and x11 models were used and primagrafts collected at the completion of the study. Short-term kinetics studies were also undertaken with ACC x9 and x5M1 primagrafts involving 3 day ATRA treatments. All animal procedures used in this study were approved by the IACUC at START, San Antonio, Tex.

c-myb [2] = assay: qPCR of sorted c-myb:GFP zebrafish embryo cells; format: cell-based; conditions: sorted c-myb:GFP cells from 72 hpf embryos, 1 μM, 6 hours
Protocol: RA dose response experiments were plated similarly in LDF medium with the appropriate RA concentration. Sorted c-myb:GFP+ cells were collected from 72 hpf transgenic embryos that were homogenized: embryos were finely chopped and dissociated using Liberase (Roche), cell suspensions were filtered, and 58,000 GFP+ live cells were collected using a FACS Aria cell sorter (BD Biosciences). Cells were cultured for 6 hours in LDF medium, and then collected for qPCR.
(§3) Quantitative PCR: Total RNA from cells was extracted using Qiagen RNeasy Mini Kit, and random primed cDNA was generated (Invitrogen, SuperScript III First-Strand Synthesis System). The SsoFast EvaGreen (Biorad) method was used to quantify cDNAs of interest, which are represented as the fold change in transcript level. The amount of cDNA starting material for each sample was normalized in relation to species-specific β-actin expression for zebrafish samples, and both gapdh and β-actin expression for human samples. The primer sequences used were zebrafish myb: forward, 5′-[…]-3′ (SEQ ID No:1), reverse, 5′-[…]-3′ (SEQ ID No:2); zebrafish β-actin: forward, 5′-[…]-3′ (SEQ ID No:3), reverse, 5′-[…]-3′ (SEQ ID No:4); human myb: forward, 5′-[…]-3′ (SEQ ID No:5), reverse, 5′-[…]-3′ (SEQ ID No:6); human gapdh: forward, 5′-[…]-3′ (SEQ ID No:7), reverse, 5′-[…]-3′ (SEQ ID No:8); human β-actin: forward, 5′-[…]-3′ (SEQ ID No:9), reverse, 5′-[…]-3′ (SEQ ID No:10).
Zebrafish quantitative PCR analysis: Stage-matched 72 hpf c-myb:GFP transgenic embryos were finely chopped and dissociated using Liberase (Roche). GFP+ cells were collected using a FACS Aria cell sorter (BD Biosciences). Sorted cells were resuspended in zebrafish blastomere media and plated with 1 μM retinoic acid agonists for 6 hours. Cells were then collected and RNA was isolated using the RNeasy Micro Plus Kit (Qiagen) as per the manufacturer's instructions. cDNA was synthesized using the SuperScript III Kit (Life Technologies). Quantitative PCR was performed in triplicate on a BioRad iQ5 real-time PCR machine using Ssofast EvaGreen Supermix (BioRad). Samples were normalized to β-actin gene. Zebrafish primers used (forward and reverse respectively): actin, 5′-[…]-3′ (SEQ ID No:3) and 5′-[…] -3′ (SEQ ID No:4); c-myb, 5′-[…]-3′ (SEQ ID No:1) and 5′-[…]-3′ (SEQ ID No:2); mpx, 5′-[…]-3′ (SEQ ID No:11) and 5′-[…]-3′ (SEQ ID No:12); GFP, 5′-[…]-3′ (SEQ ID No:13) and 5′-[…]-3′ (SEQ ID No:14).

c-myb [3] = assay: U937 time course qPCR of c-myb; format: cell-based, human; conditions: for myb levels in U937 by qPCR: 1 μM, 6, 24 and 48 hours
Protocol: Cell culture: U937 cells were grown in RPMI 1640 (Life Technologies), 10% heat inactivated FBS, and 1% Penicillin-Streptomycin (Invitrogen). CellTiter-Glo Luminescent Cell Viability Assay (Promega) was performed as per manufacturer's instructions. Cell viability was assessed at day 2.
as §3
U937 time course quantitative PCR analysis: U937 cells were plated with 1 μM retinoic acid agonists for the duration indicated. Cells were then collected and RNA was isolated using the RNeasy Plus Mini Kit (Qiagen) as per the manufacturer's instructions. Further processing was done as described in the section above. Samples were normalized to β-actin gene. Human primers used (forward and reverse respectively): actin, 5′-[…]-3′ (SEQ ID No:9) and 5′-[…]-3′ (SEQ ID No:10); c-myb, 5′-[…]-3′ (SEQ ID No:5) and 5′-[…]-3′ (SEQ ID No:6).

ACCx11 = assay: ACC xenotransplantation trial, ACCx11; format: in vivo, nude mice; conditions: for tumor growth inhibition ACCx11: oral 0.2 mL flat dose: ATRA 4 mg/mL, isotretinoin 30 mg/mL, fenretinide 40 mg/mL
Protocol: as §1, §2

ACCx6 = assay: ACC xenotransplantation trial, ACCx6; format: in vivo, nude mice; conditions: oral 0.2 mL flat dose: ATRA 4 mg/mL, isotretinoin 30 mg/mL, fenretinide 40 mg/mL
Protocol: as §1
Primagraft experiments: For in vivo drug testing, ACC tumor fragments from host animals were implanted subcutaneously into the flank of nude mice (CRL: ATH/NU). Once tumors reached 125-250 mm3, mice were randomized to receive vehicle or drug diluted in 10:90 DMSO:10% hydroxypropyl-beta-cyclodextrin orally until controls reached a tumor volume endpoint of 1-2 cm3 (4-9 mice per group: x5M1 and x6, 4 treated vs. 9 vehicle controls; x9, 4 treated vs. 5 vehicle controls; x11, 5 treated vs. 8 vehicle controls). Mice were treated with ATRA (ACC x6 and x11: 4 mg/mL, 0.2 mL flat dose; ACC×9: 3 mg/mL, 0.2 mL flat dose) or isotretinoin (30 mg/mL, 0.2 mL flat dose). Tumor growth was monitored and mice weighed twice weekly and studies ended when final group reached tumor volume endpoint. No statistical methods were employed to determine the sample size, and no blinding of investigators was performed. […]

SMILES | Average tumor growth inhibition across the three models [1] [%] | Average tumor growth inhibition across the three models ([1]; listed as all-trans retinoic acid (ATRA)) [%] | endogenous myb levels by qPCR (c-myb [2]) | myb levels in U937 by qPCR (c-myb [3]) | time to downregulation of c-myb expression (c-myb [3]; U937 cells, 1 μM ATRA) [h] | tumor growth inhibition after discontinuation of treatment, ACC x11 (ACCx11; after approximately 28 days of treatment) | tumor growth inhibition ACCx11 (ACCx11) [%] | tumor growth inhibition ACCx6 (ACCx6) [%] | Average tumor growth inhibition across the three models ([1]; listed as fenretinide) [%] | myb levels in U937 by qPCR (c-myb [3]; listed as RA p-hydroxyanilide) | Average tumor growth inhibition across the three models ([1]; listed as isotretinoin) [%]
CC(C=CC1=C(C)CCCC1(C)C)=CC=C/C(C)=C/C(=O)O [ATRA, (E)-3,7-dimethyl-9-(2,6,6-trimethyl-1-cyclo-hexen-1-yl)-2,4,6,8-nonatetraenoic acid] | 88 | 88 | significantly downregulate | significantly downregulate; also recorded: reduction | ≤ 3 | sustained | 105 | 81 |  |  | 
CC1=C(/C=C/C(C)=C/C=C/C(C)=C/C(=O)Nc2ccc(O)cc2)C(C)(C)CCC1 [Fenretinide, retinoic acid p-hydroxyanilide] | 53 |  | significantly downregulate | reduction |  |  | 41 | 60 | 53 | significantly downregulate | 
CC1=C(/C=C/C(C)=C/C=C/C(C)=C\C(=O)O)C(C)(C)CCC1 [Isotretinoin, 13-cis-retinoic acid] | 86 |  | significantly downregulate | significantly downregulate; also recorded: reduction |  |  | 94 | 69 |  |  | 86
